molecular target: T1, Aurora-A (Homo sapiens, UniProt O14965); test: Flashplate Aurora A enzyme inhibition assay; assay type: biochemical; conditions: not given
T1 sequence (O14965 1-403): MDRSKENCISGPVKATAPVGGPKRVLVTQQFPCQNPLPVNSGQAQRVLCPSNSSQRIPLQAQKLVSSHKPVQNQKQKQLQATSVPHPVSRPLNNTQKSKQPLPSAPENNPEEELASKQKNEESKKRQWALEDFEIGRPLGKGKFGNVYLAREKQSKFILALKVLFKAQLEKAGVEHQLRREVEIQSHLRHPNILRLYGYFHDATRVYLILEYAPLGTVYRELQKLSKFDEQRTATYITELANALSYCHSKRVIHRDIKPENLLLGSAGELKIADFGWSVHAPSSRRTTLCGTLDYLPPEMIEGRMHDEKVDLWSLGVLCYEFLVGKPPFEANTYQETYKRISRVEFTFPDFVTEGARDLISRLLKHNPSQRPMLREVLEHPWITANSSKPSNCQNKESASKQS
Method: Flashplate® Assay for Identification and Evaluation of Aurora-A Inhibitors
On this assay 384-well Basic Flashplate® (SMP400E, PerkinElmer) as solid assay platform was used. The plates were coated overnight at 4° C. with […] at 100 μg/ml in PBS buffer and used after being washed twice with PBS. 5 μl of compound in 2% DMSO was added to each well followed by 15 μl master mix of kinase buffer (50 mM Tris pH 7.5, 10 mM NaCl, 2.5 mM MgCl2, 1 mM […], 20 μM ATP, and 0.025 μCi/μl ^33P-ATP). Finally, 250 ng per well of Aurora-A enzyme was added. The plate was shaken for approximately 2 min on a flat-bed plate shaker (Wellmix, Denley, UK) and incubated for 2 hours at room temperature. The reaction was stopped by washing the plate twice on a 16-pin wash (ELX50 BioTek Instruments Ltd., Northstar, Bedford, UK) with 10 mM sodium pyrophosphate. The plate was then read on a TopCount-NX™ (PerkinElmer Life Sciences UK Ltd., Hounslow, UK).

| Structure (SMILES) | IC50 [nM] |
| --- | --- |
| CN(C)c1ccc(-c2nc3c(N4CCN(C(=O)Nc5ccccc5)CC4)c(Br)cnc3[nH]2)cc1 [Example 39, 4-(6-Bromo-2-(4-(dimethylamino)phenyl)-3H-imidazo[4,5-b]pyridin-7-yl)-N-phenylpiperazine-1-carboxamide] | < 500 |

same assay, conditions: Flashplate assay; IC50 range; read-out: Aurora-A inhibition

| IC50 [nM] | Structure (SMILES) |
| --- | --- |
| < 500 | CN(C)c1ccc(-c2nc3c(N4CCN(CC(=O)N(C)c5ccccc5)CC4)c(Cl)cnc3[nH]2)cc1 [Example 3, 2-{4-[6-Chloro-2-(4-dimethylamino-phenyl)-3H-imidazo[4,5-b]pyridin-7-yl]-piperazin-1-yl}-N-methyl-N-phenyl-acetamide] |
| < 500 | O=C(CN1CCN(c2c(Cl)cnc3[nH]c(-c4ccccc4)nc23)CC1)Nc1nccs1 [Example 4, 2-[4-(6-Chloro-2-phenyl-3H-imidazo[4,5-b]pyridin-7-yl)-piperazin-1-yl]-N-thiazol-2-yl-acetamide] |
| 500 to 2000 | CC(C)(C)OC(=O)NCc1ccc(-c2nc3c(N4CCN(CC(=O)Nc5nccs5)CC4)c(Br)cnc3[nH]2)cc1 [Example 6, (4-{6-Bromo-7-[4-(thiazol-2-ylcarbamoylmethyl)-piperazin-1-yl]-3H-imidazo[4,5-b]pyridin-2-yl}-benzyl)-carbamic acid tert-butyl ester] |
| < 500 | CN(C)c1ccc(-c2nc3c(N4CCN(CCOc5ccccc5)CC4)c(Cl)cnc3[nH]2)cc1 [Example 9, (4-{6-Chloro-7-[4-(2-phenoxy-ethyl)-piperazin-1-yl]-3H-imidazo[4,5-b]pyridin-2-yl}-phenyl)-dimethyl-amine] |
| < 500 | CN(C)c1ccc(-c2nc3c(N4CCNCC4)c(Br)cnc3[nH]2)cc1 [Example 15, [4-(6-Bromo-7-piperazin-1-yl-3H-imidazo[4,5-b]pyridin-2-yl)-phenyl]-dimethyl-amine] |
| 500 to 2000 | CN(C)c1ccc(-c2nc3c(N4CCN(Cc5c(F)cccc5Cl)CC4)c(Cl)cnc3[nH]2)cc1 [Example 16, 4-(6-Chloro-7-(4-(2-chloro-6-fluorobenzyl)piperazin-1-yl)-3H-imidazo[4,5-b]pyridin-2-yl)-N,N-dimethylaniline] |
| 2000 to 10000 | COc1ccc(C(=O)N2CCN(c3c(Cl)cnc4[nH]c(-c5ccc(N(C)C)cc5)nc34)CC2)cc1 [Example 18, (4-(6-Chloro-2-(4-(dimethylamino)phenyl)-3H-imidazo[4,5-b]pyridin-7-yl)piperazin-1-yl)(4-methoxyphenyl)methanone] |
| < 500 | CN(C)c1ccc(-c2nc3c(N4CCN(CCNC(=O)Nc5ccccc5)CC4)c(Br)cnc3[nH]2)cc1 [Example 41, 1-(2-(4-(6-Bromo-2-(4-(dimethylamino)phenyl)-3H-imidazo[4,5-b]pyridin-7-yl)piperazin-1-yl)ethyl)-3-phenylurea] |
| < 500 | CCNC(=O)N1CCN(c2c(Br)cnc3[nH]c(-c4ccc(N(C)C)cc4)nc23)CC1 [Example 43, 4-(6-Bromo-2-(4-(dimethylamino)phenyl)-3H-imidazo[4,5-b]pyridin-7-yl)-N-ethylpiperazine-1-carboxamide] |
| 500 to 2000 | CCOC(=O)C1CC1c1nc2c(N3CCN(CC(=O)Nc4nccs4)CC3)c(Br)cnc2[nH]1 (centres unmarked) [Example 45, Ethyl 2-(6-bromo-7-(4-(2-oxo-2-(thiazol-2-ylamino)ethyl)piperazin-1-yl)-3H-imidazo[4,5-b]pyridin-2-yl)cyclopropanecarboxylate] |
| 500 to 2000 | CCN1CCN(c2c(Br)cnc3[nH]c(-c4ccc(N(C)C)cc4)nc23)CC1 [Example 47, 4-(6-Bromo-7-(4-ethylpiperazin-1-yl)-3H-imidazo[4,5-b]pyridin-2-yl)-N,N-dimethylaniline] |
| 500 to 2000 | COc1ncccc1-c1nc2c(N3CCN(Cc4cccnc4)CC3)c(Br)cnc2[nH]1 [Example 55, 6-Bromo-2-(2-methoxypyridin-3-yl)-7-(4-(pyridin-3-ylmethyl)piperazin-1-yl)-3H-imidazo[4,5-b]pyridine] |
| < 500 | CC(c1ccccc1)N1CCN(c2c(Br)cnc3[nH]c(-c4ccc(N5CCC(O)CC5)cc4)nc23)CC1 (centres unmarked) [Example 88, 1-(4-{6-Bromo-7-[4-(1-phenyl-ethyl)-piperazin-1-yl]-3H-imidazo[4,5-b]pyridin-2-yl}-phenyl)-piperidin-4-ol] |
| < 500 | CC(C)(C)OC(=O)NCc1cccc(-c2nc3c(N4CCN(Cc5cccnc5)CC4)c(Br)cnc3[nH]2)c1 [Example 91, tert-Butyl 3-(6-bromo-7-(4-(pyridin-3-ylmethyl)piperazin-1-yl)-3H-imidazo[4,5-b]pyridin-2-yl)benzylcarbamate] |
| < 500 | CC(C)(C)OC(=O)N1CCN(c2ccc(-c3nc4c(N5CCN(Cc6cccnc6)CC5)c(Br)cnc4[nH]3)cc2)CC1 [Example 103, tert-Butyl 4-(4-(6-bromo-7-(4-(pyridin-3-ylmethyl)piperazin-1-yl)-3H-imidazo[4,5-b]pyridin-2-yl)phenyl)piperazine-1-carboxylate] |
| < 500 | FC(F)(F)c1ccc(CN2CCN(c3c(Br)cnc4[nH]c(-c5ccc(N6CCOCC6)cc5)nc34)CC2)cn1 [Example 126, 4-(4-(6-Bromo-7-(4-((6-(trifluoromethyl)pyridin-3-yl)methyl)piperazin-1-yl)-3H-imidazo[4,5-b]pyridin-2-yl)phenyl)morpholine] |
| < 500 | CC(C)c1nc(CN2CCN(c3c(Br)cnc4[nH]c(-c5ccc(CN6CCOCC6)cc5)nc34)CC2)co1 [Example 146, 4-(4-(6-Bromo-7-(4-((2-isopropyloxazol-4-yl)methyl)piperazin-1-yl)-3H-imidazo[4,5-b]pyridin-2-yl)benzyl)morpholine] |
| < 500 | COc1ccc(-c2nc3c(N4CCN(Cc5nccs5)CC4)c(Br)cnc3[nH]2)cc1 [Example 151, 2-((4-(6-Bromo-2-(4-methoxyphenyl)-3H-imidazo[4,5-b]pyridin-7-yl)piperazin-1-yl)methyl)thiazole] |
| < 500 | COc1ccc(-c2nc3c(N4CCN(Cc5csc(C(C)C)n5)CC4)c(Br)cnc3[nH]2)cc1 [Example 153, 4-((4-(6-Bromo-2-(4-methoxyphenyl)-3H-imidazo[4,5-b]pyridin-7-yl)piperazin-1-yl)methyl)-2-isopropylthiazole] |
| < 500 | Cc1nc(CN2CCN(c3c(Br)cnc4[nH]c(-c5ccc(CN6CCN(C(=O)OC(C)(C)C)CC6)cc5)nc34)CC2)cs1 [Example 157, tert-Butyl 4-(4-(6-bromo-7-(4-((2-methylthiazol-4-yl)methyl)piperazin-1-yl)-3H-imidazo[4,5-b]pyridin-2-yl)benzyl)piperazine-1-carboxylate] |
| < 500 | Cc1nc(CN2CCN(c3c(Br)cnc4[nH]c(-c5ccc(N6CCN(C(=O)OC(C)(C)C)CC6)cc5)nc34)CC2)cs1 [Example 158, tert-Butyl 4-(4-(6-bromo-7-(4-((2-methylthiazol-4-yl)methyl)piperazin-1-yl)-3H-imidazo[4,5-b]pyridin-2-yl)phenyl)piperazine-1-carboxylate] |

| Structure (SMILES) | IC50 [nM] |
| --- | --- |
| CN(C)c1ccc(-c2nc3c(N4CCN(c5ccccc5)CC4)c(Br)cnc3[nH]2)cc1 [Example 48, 4-(6-Bromo-7-(4-phenylpiperazin-1-yl)-3H-imidazo[4,5-b]pyridin-2-yl)-N,N-dimethylaniline] | < 500 |

system: HCT116 cells; test: Cell viability assay (MTT) in HCT116 cell line; assay type: cell-based; conditions: Homo sapiens, HCT-116, 72 hrs, IC50 range, read-out: HCT116 cell growth inhibition
Method: Cell Viability Assay: Determination of IC50 of Aurora Inhibitors in HCT116 Cell Line Using MTT Assay. The effects of compounds of the Examples on cellular proliferation were determined using the MTT assay according to manufacturer's instructions (Sigma). Briefly, the human colon tumour cells HCT116, were seeded in triplicate into 96-well plates at 2500 cells/well 24 hours before treatment with a range of concentrations of Aurora inhibitors (0-50 μM). After 72 hrs, 15 μl/well of 0.5% 3-(4,5-dimethylthiazol-2-yl)-2,5-diphenyltetrazolium bromide (MTT) was added to the cells for 4 hrs at 37° C., the dye-stained viable cells were extracted by adding 150 μl/well of dimethyl sulphoxide (DMSO). […] The IC50 was calculated using the Prism software.

| IC50 [nM] | Structure (SMILES) |
| --- | --- |
| 2000 to 50000 | CN(C)c1ccc(-c2nc3c(N4CCN(CC(=O)N(C)c5ccccc5)CC4)c(Cl)cnc3[nH]2)cc1 [Example 3, 2-{4-[6-Chloro-2-(4-dimethylamino-phenyl)-3H-imidazo[4,5-b]pyridin-7-yl]-piperazin-1-yl}-N-methyl-N-phenyl-acetamide] |
| 500 to 2000 | O=C(CN1CCN(c2c(Cl)cnc3[nH]c(-c4ccccc4)nc23)CC1)Nc1nccs1 [Example 4, 2-[4-(6-Chloro-2-phenyl-3H-imidazo[4,5-b]pyridin-7-yl)-piperazin-1-yl]-N-thiazol-2-yl-acetamide] |
| < 500 | Brc1cnc2[nH]c(-c3ccc(CN4CCOCC4)cc3)nc2c1N1CCN(Cc2ccncc2)CC1 [Example 68, 6-Bromo-2-(4-morpholin-4-ylmethyl-phenyl)-7-(4-pyridin-4-ylmethyl-piperazin-1-yl)-3H-imidazo[4,5-b]pyridine] |

From US8088761B2, “Enzyme inhibitors” (Cancer Research Technology Limited, priority 2005, dated 2012)
